# What was measured:
# [1] = tested on: patient with severe asthma; assay: Treatment of patients with severe asthma or respiratory failure (Examples I-IX); format: in vivo, human
# Description: A child with severe asthma developing symptoms of dyspnea, tachypnea, wheezing and cough is administered a 50 mM solution of L-gamma-glutamyl-(o-carboxy)phenylhydrazide as an aerosol via inhalation at a dosage of 0.01 ml/kg.
# A person with severe asthma with symptoms of dyspnea on exertion, cough and prolonged expiration is administered a 10 mM solution of bathocuproine disulfonate via inhalation as an aerosol at a dose of 0.01 ml/kg.
# A person with severe asthma with chronic symptoms of night-time cough, dyspnea and wheezing is maintained on inhalations of an aerosol of a 10 mM solution of each of S-nitrosoglutathione and aurothioglucose, at a dosage of 0.01 ml/kg.
# A child with severe asthma and impending respiratory failure with symptoms of wheezing, cough and cyanosis is given terbutaline (5 μg/kg/min) by continuous IV-infusion. […] The terbutaline is replaced with an equimolar amount of terbutaline substituted with S-nitrosothiol group.
# A person has respiratory failure with symptoms of wheezing, cough and cyanosis.
# A person with respiratory failure with symptoms as described in Example V is given inhalation of a 10 mmol solution of S-nitroso-D-cysteine, 0.01 ml/kg.
# A severe asthmatic with chronic dyspnea is given 30 mg daily prednisone.
# A severe asthmatic is treated with inhalation of 1 mg allopurinol.
# A severe asthmatic is treated with inhalation of a 10 mM solution of each of S-nitrosomethylmercaptan and ethacrynic acid, at a dosage of 0.01 ml/kg.
# [2] = tested on: patients with mild or moderate asthma; assay: Treatment of patients with mild or moderate asthma (Examples X-XI); format: in vivo, human
# Description: A child wakes up every night coughing and coughs on exertion. The patient is given inhalations of 0.01 ml/kg of a 10 mM solution of S-nitroso-D-cysteine.
# [3] = tested on: Guinea-pig tracheal rings; assay: Relaxation of methacholine-contracted guinea-pig tracheal rings by S-nitrosoglutathione pre-incubated with or without lung fractions; format: cell-based; conditions: n=7
# Description: Guinea-pig tracheal and lung parenchymal tissue were separately homogenized in 1 mM ethylenediaminetetraacetic acid, 50 mM TRIS HC1 buffer, pH 7.4, 10 mg/liter soybean trypsin inhibitor, 10 mg/liter pepstatin, 10 mg/liter chymostatin and 100 mg/liter phenylmethylsulfonyl fluoride at 4° C. and underwent centrifugation (5,000 g; 5 min) and filtration. The supernatant was loaded onto a DEAE cellulose column and eluted with a linear gradient of 0-250 mM NaCl. The S-nitrosoglutathione degrading activity was assayed as NO evolution. The results are depicted in FIG. 1 (fractions causing a net loss of NO are represented by diamonds).
# Guinea-pig tracheal rings were suspended in Krebs-Henseleit buffer (pH 7.4, 37 degrees C., equilibrated with 95% oxygen/5% carbon dioxide) and equilibrated under one gram tension. Smooth muscle contraction was monitored using a force transducer. After contraction with 5 μM methacholine, rings were exposed to S-nitrosoglutathione which had been incubated (30 minutes, pH 7.4, 25 degrees C.) (a) in phosphate buffered saline alone, (b) with guinea-pig lung protein fractions having S-nitroglutathione breakdown activity isolated as described in Background Example 2, and (c) with active lung fractions and 100 μM aurothioglucose. […]
structure (smiles),measurement,setting,value
NC(CCC(=O)NNc1ccccc1C(=O)O)C(=O)O [L-gamma-glutamyl-(o-carboxy)phenylhydrazide],asthma symptoms,"[1]; Example I: child, severe asthma, 50 mM solution as aerosol via inhalation, 0.01 ml/kg",symptoms improve
N[C@H](CSN=O)C(=O)O [S-nitroso-D-cysteine],asthma symptoms,"[1]; Example VI: person, respiratory failure, inhalation of 10 mmol solution, 0.01 ml/kg",Improvement occurs
same,asthma symptoms,"[2]; Example X: child, night cough and cough on exertion, inhalations of 0.01 ml/kg of 10 mM solution",sleeps through the night and is able to participate in sports without shortness of breath
N[C@@H](CCC(=O)N[C@@H](CSN=O)C(=O)NCC(=O)O)C(=O)O [S-nitrosoglutathione],relaxation of tracheal rings by S-nitrosoglutathione after incubation with active lung fractions,"[3]; rings contracted with 5 μM methacholine, S-nitrosoglutathione incubated 30 minutes, pH 7.4, 25 degrees C with guinea-pig lung protein fractions, p<0.005 for all concentrations >500 nM",relaxation was nearly completely inhibited
N[C@H](C(=O)O)[C@@H]1CC(Cl)=NO1 [acivicin],asthma symptoms,"[1]; Example V: person, respiratory failure, parenteral methylprednisone 4 mg/kg and terbutaline 5 μg/kg/min, then nebulized acivicin 0.01 mmol/kg",symptoms improve
same,asthma symptoms,"[2]; Example XI: person, wheezing and coughing three times a year, nebulized 0.01 mmol/kg",becomes asymptomatic
Oc1ncnc2[nH]ncc12 [allopurinol],asthma symptoms,"[1]; Example VIII: severe asthmatic, inhalation of 1 mg",Symptoms improve
OC[C@H]1O[C@H]([S-])[C@H](O)[C@@H](O)[C@@H]1O.[Au+] [aurothioglucose],restoration of S-nitrosoglutathione relaxation by inhibitor of breakdown,"[3]; S-nitrosoglutathione incubated with active lung fractions and 100 μM aurothioglucose, p<0.001 at 50 μM",partially restored
Cc1cc(-c2ccc(S(=O)(=O)O)cc2)c2ccc3c(-c4ccc(S(=O)(=O)O)cc4)cc(C)nc3c2n1 [bathocuproine disulfonate],asthma symptoms,"[1]; Example II: person, severe asthma, 10 mM solution via inhalation as aerosol, 0.01 ml/kg",symptoms improve
CC(C)(C)NCC(O)c1cc(O)cc(O)c1 (stereo not shown) [terbutaline],asthma symptoms,"[1]; Example IV: child, severe asthma, impending respiratory failure, continuous IV-infusion 5 μg/kg/min or equimolar amount",No improvement occurs

# Reference: patent publication US6617355B1, “Treating asthma by preventing and/or accomodating S-nitrosothiol breakdown” (The University of Virginia Patent Foundation, priority 1997, dated 2003)
